Measurements reported in patent US8158657B2, “Heterocycles substituted pyridine derivatives and antifungal agent containing thereof” (Eisai R&D Management Co., Ltd., priority 2005, dated 2012).
≈ marks a conversion by molar mass, not a printed value.

Assays:
[1] = test system: C. albicans E81022 strain; test: Experimental systemic candidal infection model in mice; format: in vivo; settings: peroral, 3 times every 4 hours, female ICR mice, observed until 14 days after infection
Method: A standing culture of C. albicans E81022 strain was carried out for 48 hours at 30° C. in sabouraud dextrose agar medium (SDA), the recovered fungal cells were suspended in sterilized physiological saline. By counting the fungal number on cytometry plate, the suspension was diluted to 2×10^7 cells/mL with sterilized physiological saline to serve fungal inoculum.
The fungal inoculum was used in the amounts of 0.2 mL to inoculate 4.5 to 5.5 week-old female ICR mice in the tail vein (4×10^6 cells/mouse).
From 0.5 to 1 hour after fungal inoculation, 0.2 mL of agent solution (dissolved or suspended in sterilized physiological saline containing 6.5% dimethyl sulfoxide and 3.5% Tween 80) was administered into the stomach using a peroral probe, 3 times every 4 hours. The agent concentration was 2.5 mg/kg or 10 mg/kg, and the number of animals in one group was 5 animals.
The protective effect was determined by observing life/death until 14 days after infection and calculating the mean survival days.

[2] = test system: A. fumigatus Tsukuba strain; test: Anti-Aspergillus activity, MIC measurement; format: cell-based; settings: RPMI1640, 42-48 hours at 35° C., visual inspection, read-out: Anti-Aspergillus Activity (minimum inhibitory concentration, MIC)
Procedure, shortened: (§1)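 C. albicans CAF2-1 was grown 48 h at 30° C. in SDB and diluted in RPMI1640 to 1.2×10^3 cells/mL. Frozen A. fumigatus Tsukuba was diluted to 4.5×10^3 cells/mL. Compounds, two-fold serially diluted in DMSO from 2.5 mg/mL, were cultured aerobically with fungi for 42-48 h at 35° C.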

[3] = test system: C. albicans CAF2-1 strain; test: Anti-Candida activity, MIC measurement; format: cell-based; settings: CAF21STRAIN, C. albicans CAF2-1, RPMI1640, 42-48 hours at 35° C., visual inspection, read-out: Anti-Candida Activity (minimum inhibitory concentration, MIC)
Procedure, shortened: as §1

Compound | Mean Survival Days ([1]; 2.5 mg/kg) | Mean Survival Days ([1]; 10 mg/kg) | MIC [2] | MIC [3]
Nc1ccc(-c2cnn(Cc3ccc(OCc4ccccc4)cc3)c2)c(N)n1 [Example 36, 3-(1-(4-Benzyloxy-benzyl)-1H-pyrazol-4-yl)-pyridin-2,6-diamine] | 9.4 days | 14.0 days | 0.78 µg/mL (≈ 2.1 µM) | 0.39 µg/mL (≈ 1.05 µM)
Nc1ncccc1-c1cc(Cc2ccc(OCc3ccc(F)cc3)nc2)no1 [Example 58, 3-(3-(6-(4-Fluoro-benzyloxy)-pyridin-3-ylmethyl)-isoxazol-5-yl)-pyridin-2-ylamine] | 3.8 days | 12.0 days | 0.1 µg/mL (≈ 0.266 µM) | 0.78 µg/mL (≈ 2.07 µM)
Nc1ncccc1-c1cc(Cc2ccc(OCc3ccccc3)cc2)on1 [Example 29, 3-(5-(4-Benzyloxy-benzyl)-isoxazol-3-yl)-pyridin-2-ylamine] | – | 11.4 days | 0.2 µg/mL (≈ 0.56 µM) | 0.39 µg/mL (≈ 1.09 µM)
CCCCOCc1ccc(Cn2cc(-c3cccnc3N)cn2)cc1 [Example 33, 3-(1-(4-Butoxymethyl-benzyl)-1H-pyrazol-4-yl)-pyridin-2-ylamine] | 2.4 days | 8.4 days | 0.78 µg/mL (≈ 2.32 µM) | 0.39 µg/mL (≈ 1.16 µM)
Nc1ncccc1-c1cc(Cc2ccc(COc3cccc(F)n3)cc2)no1 [Example 55, 3-(3-(4-(6-Fluoro-pyridin-2-yloxymethyl)-benzyl)-isoxazol-5-yl)-pyridin-2-ylamine] | 13.8 days | 14.0 days | 0.1 µg/mL (≈ 0.266 µM) | 0.05 µg/mL (≈ 0.133 µM)
Nc1ccc(-c2cc(Cc3ccc(OCc4nccs4)cc3)no2)c(N)n1 [Example 151, 3-(3-(4-(Thiazol-2-ylmethoxy)-benzyl)-isoxazol-5-yl)-pyridin-2,6-diamine] | 7.0 days | 14.0 days | 0.39 µg/mL (≈ 1.03 µM) | 0.78 µg/mL (≈ 2.06 µM)
Nc1ccc(-c2cc(Cc3ccc(OCc4ccccc4)nc3)no2)c(N)n1 [Example 25, 3-(3-(6-benzyloxy-pyridin-3-ylmethyl)-isoxazol-5-yl)-pyridine-2,6-diamine] | 12.2 days | – | 0.2 µg/mL (≈ 0.536 µM) | 0.2 µg/mL (≈ 0.536 µM)
Nc1ncccc1-c1cc(Cc2ccc(CNc3ccccc3)cc2)no1 [Example 73, 3-(3-(4-Phenylaminomethyl-benzyl)-isoxazol-5-yl)-pyridin-2-ylamine] | 4.4 days | 12.6 days | 0.39 µg/mL (≈ 1.09 µM) | 0.1 µg/mL (≈ 0.281 µM)
Nc1ccc(-c2cc(Cc3ccc(COc4ccccn4)cc3)no2)c(N)n1 [Example 14] | 13.4 days | 14.0 days | 0.39 µg/mL (≈ 1.04 µM) | 0.39 µg/mL (≈ 1.04 µM)
Nc1ccc(-c2cc(Cc3ccc(COc4ccccn4)cc3)no2)cn1 [Example 176] | 12.6 days | 13.4 days | 0.2 µg/mL (≈ 0.558 µM) | 0.2 µg/mL (≈ 0.558 µM)
COCc1ccc(-c2cc(Cc3ccc(COc4ccccn4)cc3)no2)c(N)n1 [Example 27] | 3.0 days | 10.0 days | 0.39 µg/mL (≈ 0.969 µM) | 0.2 µg/mL (≈ 0.497 µM)
Cc1ccnc(OCc2ccc(Cc3cc(-c4cccnc4N)on3)cc2)c1 [Example 43, 3-(3-(4-(4-Methyl-pyridin-2-yloxymethyl)-benzyl)-isoxazol-5-yl)-pyridin-2-ylamine] | 10.6 days | 14.0 days | 0.39 µg/mL (≈ 1.05 µM) | 0.2 µg/mL (≈ 0.537 µM)
Nc1ccc(-c2cc(Cc3ccc(Oc4ccc(F)cc4)nc3)no2)c(N)n1 [Example 135, 3-(3-(6-(4-Fluoro-phenoxy)-pyridin-3-ylmethyl)-isoxazol-5-yl)-pyridin-2,6-diamine] | 11.0 days | 13.4 days | 0.39 µg/mL (≈ 1.03 µM) | 0.78 µg/mL (≈ 2.07 µM)
Nc1ccc(-c2cc(Cc3ccc(OCc4cccc(Cl)n4)cc3)no2)c(N)n1 [Example 110, 3-(3-(4-(6-Chloro-pyridin-2-ylmethoxy)-benzyl)-isoxazol-5-yl)-pyridin-2,6-diamine] | 12.0 days | – | 0.78 µg/mL (≈ 1.91 µM) | 0.78 µg/mL (≈ 1.91 µM)
Cc1ccnc(COc2ccc(Cc3cc(-c4ccc(N)nc4N)on3)cc2)c1 [Example 24, 3-(3-(4-(4-Methyl-pyridin-2-ylmethoxy)-benzyl)-isoxazol-5-yl)-pyridin-2,6-diamine] | 7.4 days | 14.0 days | 0.78 µg/mL (≈ 2.01 µM) | 0.39 µg/mL (≈ 1.01 µM)
Cc1ccc(-c2cc(Cc3ccc(COc4ccccn4)cc3)no2)c(N)n1 [Example 171] | 8.4 days | 12.6 days | 0.39 µg/mL (≈ 1.05 µM) | 0.2 µg/mL (≈ 0.537 µM)
Nc1ccc(-c2cc(Cc3ccc(COc4ccccc4)nc3)no2)c(N)n1 [Example 111, 3-(3-(6-Phenoxymethyl-pyridin-3-ylmethyl)-isoxazol-5-yl)-pyridin-2,6-diamine] | 13.6 days | – | 0.78 µg/mL (≈ 2.09 µM) | 0.39 µg/mL (≈ 1.04 µM)
Nc1ccc(-c2cc(Cc3ccc(Oc4ccccc4)nc3)no2)c(N)n1 [Example 40, 3-(3-(6-Phenoxy-pyridin-3-ylmethyl)-isoxazol-5-yl)-pyridin-2,6-diamine] | 11.6 days | 14.0 days | 0.39 µg/mL (≈ 1.09 µM) | 0.39 µg/mL (≈ 1.09 µM)
Nc1ccc(-c2cc(Cc3ccc(OCc4cc(Cl)ccn4)cc3)no2)c(N)n1 [Example 109, 3-(3-(4-(4-Chloro-pyridin-2-ylmethoxy)-benzyl)-isoxazol-5-yl)-pyridin-2,6-diamine] | 11.0 days | 11.8 days | 0.78 µg/mL (≈ 1.91 µM) | 0.39 µg/mL (≈ 0.956 µM)
Nc1ccc(-c2cc(Cc3ccn(Cc4ccccc4)c3)no2)c(N)n1 [Example 115, 3-(3-(1-Benzyl-1H-pyrrol-3-ylmethyl)-isoxazol-5-yl)-pyridin-2,6-diamine] | 10.8 days | 13.2 days | 0.2 µg/mL (≈ 0.579 µM) | 0.1 µg/mL (≈ 0.29 µM)
Nc1ncccc1-c1cnn(Cc2ccc(OCc3ccccc3)cc2)c1 [Example 31, 3-(1-(4-Benzyloxy-benzyl)-1H-pyrazol-4-yl)-pyridin-2-ylamine] | – | 13.0 days | 0.39 µg/mL (≈ 1.09 µM) | 0.2 µg/mL (≈ 0.561 µM)
Nc1ncccc1-c1cc(Cc2ccc(COc3ccccn3)cc2)on1 [Example 30, 3-(5-(4-(Pyridin-2-yloxymethyl)-benzyl)-isoxazol-3-yl)-pyridin-2-ylamine] | 13.0 days | – | 0.2 µg/mL (≈ 0.558 µM) | 0.1 µg/mL (≈ 0.279 µM)
Nc1ccc(-c2cc(Cc3ccc(Cc4ccc(Cl)o4)cc3)no2)c(N)n1 [Example 120, 3-(3-(4-(5-Chloro-furan-2-ylmethyl)-benzyl)-isoxazol-5-yl)-pyridin-2,6-diamine] | 3.2 days | 13.4 days | 0.2 µg/mL (≈ 0.525 µM) | 0.39 µg/mL (≈ 1.02 µM)
CCCCOCc1ccc(Cn2cc(-c3ccc(N)nc3N)cn2)cc1 [Example 38, 3-(1-(4-Butoxymethyl-benzyl)-1H-pyrazol-4-yl)-pyridin-2,6-diamine] | 4.8 days | 10.0 days | 1.56 µg/mL (≈ 4.44 µM) | 0.78 µg/mL (≈ 2.22 µM)
Nc1ncccc1-c1cc(Cc2ccc(OCc3ccccc3)nc2)no1 [Example 12, 3-(3-(6-Benzyloxy-pyridin-3-ylmethyl)-isoxazol-5-yl)-pyridin-2-ylamine] | 10.8 days | 14.0 days | 0.1 µg/mL (≈ 0.279 µM) | 0.1 µg/mL (≈ 0.279 µM)
Nc1ccc(-c2cnn(Cc3ccc(COc4ccccn4)cc3)c2)c(N)n1 [Example 37, 3-(1-(4-(Pyridin-2-yloxymethyl)-benzyl)-1H-pyrazol-4-yl)-pyridin-2,6-diamine] | 5.4 days | 14.0 days | 1.56 µg/mL (≈ 4.19 µM) | 0.39 µg/mL (≈ 1.05 µM)
Nc1ccc(-c2cc(Cc3ccc(OCc4ccccc4)cc3)no2)c(N)n1 [Example 13, 3-(3-(4-Benzyloxy-benzyl)-isoxazol-5-yl)-pyridin-2,6-diamine] | 13.8 days | 14.0 days | 0.1 µg/mL (≈ 0.269 µM) | 0.2 µg/mL (≈ 0.537 µM)
Nc1ccc(-c2cc(Cc3ccc(OCc4cccc(F)n4)cc3)no2)c(N)n1 [Example 104, 3-(3-(4-(6-Fluoro-pyridin-2-ylmethoxy)-benzyl)-isoxazol-5-yl)-pyridin-2,6-diamine] | 8.2 days | 13.2 days | 0.78 µg/mL (≈ 1.99 µM) | 0.78 µg/mL (≈ 1.99 µM)
Nc1ncccc1-c1cc(Cc2ccc(Cc3ccc(Cl)o3)cc2)no1 [Example 62, 3-(3-(4-(5-Chloro-furan-2-ylmethyl)-benzyl)-isoxazol-5-yl)-pyridin-2-ylamine] | 10.2 days | – | 0.2 µg/mL (≈ 0.547 µM) | 0.2 µg/mL (≈ 0.547 µM)
Nc1ncccc1-c1cc(Cc2ccc(COc3ccccc3)nc2)no1 [Example 54, 3-(3-(6-Phenoxymethyl-pyridin-3-ylmethyl)-isoxazol-5-yl)-pyridin-2-ylamine] | 13.0 days | 13.6 days | 0.39 µg/mL (≈ 1.09 µM) | 0.1 µg/mL (≈ 0.279 µM)
